Measured values from ChEMBL document CHEMBL1155965, “Addressing the malaria drug resistance challenge using flow cytometry to discover new antimalarials” (Bioorg Med Chem Lett, 2009).

Tested on: Plasmodium falciparum
Assay: Antimalarial activity against Plasmodium falciparum W2mef trophozoite form by hoechst 33342-thiazole orange stain based flow cytometry assay
Assay type: functional, organism-based
Conditions: not given
`Cc1cc(/C=C/C#N)cc(C)c1Nc1ccnc(Nc2ccc(C#N)cc2)n1` [RILPIVIRINE] gave an IC50 of 2000 nM. Compound `CNC(=O)c1cc(Oc2ccc(NC(=O)Nc3ccc(Cl)c(C(F)(F)F)c3)cc2)ccn1` [SORAFENIB] has an IC50 of 509 nM. With `C[C@@H]1CC[C@H]2[C@@H](C)C(=O)O[C@@H]3O[C@@]4(C)CC[C@@H]1[C@]32OO4` [ARTEMISININ] the IC50 was 7 nM. In the case of `Cc1cc(C#N)cc(C)c1Oc1nc(Nc2ccc(C#N)cc2)nc(N)c1Br` [ETRAVIRINE], the IC50 is reported as 726 nM. Work on `Cc1[nH]c(/C=C2\C(=O)Nc3ccc(S(=O)(=O)N(C)c4cccc(Cl)c4)cc32)c(C)c1C(=O)N1CCN(C)CC1` yielded an IC50 of 620 nM. With `Cn1cnc(CSCc2ccc(I)cc2)c1` the IC50 was 16600 nM. For `OC(c1cc(C(F)(F)F)nc2c(C(F)(F)F)cccc12)C1CCCCN1` (centres undefined) [MEFLOQUINE], the IC50 was 74 nM.

Tested on: not listed separately
Assay: Cytotoxicity against human erythrocytes assessed as change in cell shape by flow cytometry
Assay type: cell-based
Conditions: erythrocyte
With `Cc1cc(C#N)cc(C)c1Oc1nc(Nc2ccc(C#N)cc2)nc(N)c1Br` [ETRAVIRINE] the Activity was “Non-toxic”.

Tested on: not listed separately
Assay: Cytotoxicity against human erythrocytes assessed as change in internal complexity by flow cytometry
Assay type: cell-based
Conditions: erythrocyte
For `Cc1cc(C#N)cc(C)c1Oc1nc(Nc2ccc(C#N)cc2)nc(N)c1Br` [ETRAVIRINE], the Activity was “Non-toxic”.

Tested on: not listed separately
Assay: Cytotoxicity against human erythrocytes assessed as intact cells by propidium iodide stain based flow cytometry
Assay type: cell-based, Erythrocyte
Conditions: read-out: Activity
With `Cc1cc(C#N)cc(C)c1Oc1nc(Nc2ccc(C#N)cc2)nc(N)c1Br` [ETRAVIRINE] the viability was > 98.5%.

Tested on: Plasmodium falciparum
Assay: Antimalarial activity against Plasmodium falciparum W2mef at 10 uM after 48 hrs by hoechst 33342-thiazole orange stain based flow cytometry assay
Assay type: functional
Conditions: not given
`COC(=O)c1cn2nc[nH]c(=O)c2c1C` gave an inhibition at 10 µM of 9.62%. With `Cn1cnc(C[S+]([O-])Cc2ccc(I)cc2)c1` (centres undefined) the inhibition at 10 µM was 6.31%. With `Oc1ccc(C(O)C2CCc3ccccc3C2)cc1` (centres undefined) the inhibition at 10 µM was 14.6%. With `Cn1cncc1CSCc1ccc(I)cc1` the inhibition at 10 µM was 41.9%. Compound `Cn1cc(-c2[nH]c3cc(N)cc4c3c2C=NNC4=O)cn1` has an inhibition at 10 µM of 9.17%. For `Cn1cnc(CSCc2ccccc2)c1`, the inhibition at 10 µM was 42.1%. For `Cc1cc(/C=C/C#N)cc(C)c1Nc1ccnc(Nc2ccc(C#N)cc2)n1` [RILPIVIRINE], the inhibition at 10 µM was 49.8%. Work on `COc1cc2ncn(-c3sc(C(N)=O)cc3OCc3ccccc3C(F)(F)F)c2cc1OC` yielded an inhibition at 10 µM of 24.6%. `CNC(=O)c1cc(Oc2ccc(NC(=O)Nc3ccc(Cl)c(C(F)(F)F)c3)cc2)ccn1` [SORAFENIB] showed an inhibition at 10 µM of 87.5%. Compound `Cc1ccc(-c2nc3c(Br)cc4c(c3[nH]2)C(=O)NC(=O)C4(C)C)cc1[N+](=O)[O-]` has an inhibition at 10 µM of 11.2%. Work on `Clc1ccc(C2(c3ccc4noc(-c5cccc(Cl)c5)c4c3)OCCO2)cc1` yielded an inhibition at 10 µM of 54.5%. Work on `Cc1cc(O)cc(C)c1CN1CCc2ccccc2C1` yielded an inhibition at 10 µM of 6.76%. In the case of `O=C(c1ccc(Cl)cc1)c1ccc2[nH]c(=O)cc(-c3cccc(Cl)c3)c2c1`, the inhibition at 10 µM is reported as 36.1%. `CCN(CC)C(=O)[C@@]1(c2ccccc2)C[C@H]1CNC(=O)O[C@@H]1O[C@H](C(=O)OC)[C@@H](O)[C@H](O)[C@H]1O` gave an inhibition at 10 µM of 3.16%. Compound `O=S(=O)(c1ccccc1)C(CCCn1ccnc1)c1ccc(I)cc1` (centres undefined) has an inhibition at 10 µM of 3.46%. `Cc1cc(I)ccc1Nc1c(C(=O)N2CCNCC2)cc2nc[nH]c2c1F` gave an inhibition at 10 µM of 0.25%. With `Cc1cc(C#N)cc(C)c1Oc1nc(Nc2ccc(C#N)cc2)nc(N)c1Br` [ETRAVIRINE] the inhibition at 10 µM was 91.7%. With `N#Cc1ccc(Nc2nc(O)cc(O)n2)cc1` the inhibition at 10 µM was 1.46%. In the case of `C/C(O)=C(\C#N)C(=O)Nc1ccc(C(F)(F)F)cc1` [TERIFLUNOMIDE], the inhibition at 10 µM is reported as 4.96%. `Cc1[nH]c(/C=C2\C(=O)Nc3ccc(S(=O)(=O)N(C)c4cccc(Cl)c4)cc32)c(C)c1C(=O)N1CCN(C)CC1` gave an inhibition at 10 µM of 85.1%. Work on `CC(C)C1=NN=CC1C1CC2CCC(C1)N2` (centres undefined) yielded an inhibition at 10 µM of 0%. `Ic1ccc(CSCc2c[nH]cn2)cc1` gave an inhibition at 10 µM of 37.1%. With `O=C(NCCc1c[nH]cn1)/C(Cc1ccccc1)=N\O` the inhibition at 10 µM was 2.61%. In the case of `O=C(Cc1ccc(O)cc1)N1CCc2ccccc2C1`, the inhibition at 10 µM is reported as 1.1%. With `Cn1cnc(CSCc2ccc(I)cc2)c1` the inhibition at 10 µM was 74.9%. Compound `Fc1cccc(-c2nc3ccncc3[nH]2)c1F` has an inhibition at 10 µM of 14.4%. `Oc1c(F)cc(CN2CCc3ccccc3C2)cc1F` showed an inhibition at 10 µM of 8.47%.

Tested on: Plasmodium falciparum
Assay: Antimalarial activity against Plasmodium falciparum W2mef ring form by hoechst 33342-thiazole orange stain based flow cytometry assay
Assay type: functional, organism-based
Conditions: not given
`Cc1cc(/C=C/C#N)cc(C)c1Nc1ccnc(Nc2ccc(C#N)cc2)n1` [RILPIVIRINE] showed an IC50 of 1200 nM. For `CNC(=O)c1cc(Oc2ccc(NC(=O)Nc3ccc(Cl)c(C(F)(F)F)c3)cc2)ccn1` [SORAFENIB], the IC50 was 328 nM. Work on `C[C@@H]1CC[C@H]2[C@@H](C)C(=O)O[C@@H]3O[C@@]4(C)CC[C@@H]1[C@]32OO4` [ARTEMISININ] yielded an IC50 of 20 nM. With `Cc1cc(C#N)cc(C)c1Oc1nc(Nc2ccc(C#N)cc2)nc(N)c1Br` [ETRAVIRINE] the IC50 was 409 nM. Compound `Cc1[nH]c(/C=C2\C(=O)Nc3ccc(S(=O)(=O)N(C)c4cccc(Cl)c4)cc32)c(C)c1C(=O)N1CCN(C)CC1` has an IC50 of 228 nM. `Cn1cnc(CSCc2ccc(I)cc2)c1` gave an IC50 of 1080 nM. With `OC(c1cc(C(F)(F)F)nc2c(C(F)(F)F)cccc12)C1CCCCN1` (centres undefined) [MEFLOQUINE] the IC50 was 147 nM.

Tested on: Plasmodium falciparum
Assay: Antimalarial activity against Plasmodium falciparum W2mef schizont form by hoechst 33342-thiazole orange stain based flow cytometry assay
Assay type: functional, organism-based
Conditions: not given
Compound `Cc1cc(/C=C/C#N)cc(C)c1Nc1ccnc(Nc2ccc(C#N)cc2)n1` [RILPIVIRINE] has an IC50 of 1210 nM. `CNC(=O)c1cc(Oc2ccc(NC(=O)Nc3ccc(Cl)c(C(F)(F)F)c3)cc2)ccn1` [SORAFENIB] showed an IC50 of 376 nM. With `C[C@@H]1CC[C@H]2[C@@H](C)C(=O)O[C@@H]3O[C@@]4(C)CC[C@@H]1[C@]32OO4` [ARTEMISININ] the IC50 was 8 nM. Work on `Cc1cc(C#N)cc(C)c1Oc1nc(Nc2ccc(C#N)cc2)nc(N)c1Br` [ETRAVIRINE] yielded an IC50 of 716 nM. In the case of `Cc1[nH]c(/C=C2\C(=O)Nc3ccc(S(=O)(=O)N(C)c4cccc(Cl)c4)cc32)c(C)c1C(=O)N1CCN(C)CC1`, the IC50 is reported as 317 nM. For `Cn1cnc(CSCc2ccc(I)cc2)c1`, the IC50 was 2000 nM. Work on `OC(c1cc(C(F)(F)F)nc2c(C(F)(F)F)cccc12)C1CCCCN1` (centres undefined) [MEFLOQUINE] yielded an IC50 of 44 nM.

Tested on: Plasmodium falciparum
Assay: Antimalarial activity against Plasmodium falciparum W2mef assessed as DNA positive erythrocytes by hoechst 33342-thiazole orange stain based flow cytometry assay
Assay type: functional, organism-based
Conditions: not given
With `Cc1cc(/C=C/C#N)cc(C)c1Nc1ccnc(Nc2ccc(C#N)cc2)n1` [RILPIVIRINE] the IC50 was 1100 nM. With `CNC(=O)c1cc(Oc2ccc(NC(=O)Nc3ccc(Cl)c(C(F)(F)F)c3)cc2)ccn1` [SORAFENIB] the IC50 was 384 nM. Compound `C[C@@H]1CC[C@H]2[C@@H](C)C(=O)O[C@@H]3O[C@@]4(C)CC[C@@H]1[C@]32OO4` [ARTEMISININ] has an IC50 of 11 nM. `Cc1cc(C#N)cc(C)c1Oc1nc(Nc2ccc(C#N)cc2)nc(N)c1Br` [ETRAVIRINE] gave an IC50 of 506 nM. With `Cc1[nH]c(/C=C2\C(=O)Nc3ccc(S(=O)(=O)N(C)c4cccc(Cl)c4)cc32)c(C)c1C(=O)N1CCN(C)CC1` the IC50 was 320 nM. Compound `Cn1cnc(CSCc2ccc(I)cc2)c1` has an IC50 of 3770 nM.

Tested on: Plasmodium falciparum
Assay: microbe, parasite or virus in culture
Conditions: W2mef
Description: Antimalarial activity against Plasmodium falciparum W2mef by hypoxanthine uptake assay
With `C[C@@H]1CC[C@H]2[C@@H](C)C(=O)O[C@@H]3O[C@@]4(C)CC[C@@H]1[C@]32OO4` [ARTEMISININ] the IC50 was 12 nM. Compound `OC(c1cc(C(F)(F)F)nc2c(C(F)(F)F)cccc12)C1CCCCN1` (centres undefined) [MEFLOQUINE] has an IC50 of 142 nM.
